# Test results as given in US11919904B2, “Sulfonylamide compounds as CDK2 inhibitors” (Incyte Corporation, priority 2019, dated 2024).
# Columns and labels:
# [1] = tested on: CCNE1-amplified cell lines (COV318, OVCAR3); experiment: Cell cycle analysis by FACS in CCNE1-amplified cell lines; type: cell-based, human; details: COV318 and OVCAR3; 16 hours after treatment; compared to DMSO
# Protocol: (§1) The effect of CDK4/6-inhibition in CCNE1-amplified versus CCNE1-non-amplified cell lines was evaluated.
# (§2) A similar experiment was performed in a larger set of CCNE1-amplified cell lines (COV318 and OVCAR3) and CCNE1-non-amplified cell lines (COV504, OV56, and Igrov1) (FIG. 6).
# (§3) Bulk DNA was stained with DAPI. Compound-treated and DMSO treated control cells were acquired with CytoFlex (Beckman Coulter) and were analyzed using the FlowJo software. For cell cycle analysis of cells with siRNA knockdown, 72 hours after siRNA transfection, cells exposed to 10 μM EdU for 3 hours before detection of Click-iT Alexa Fluor® 647 azide kit.
# [2] = tested on: Rb phosphorylation at S780 in CCNE1-non-amplified cell lines (COV504 and OV56); experiment: Western blot of Rb phosphorylation at S780 in CCNE1-non-amplified cell lines; type: cell-based, human; details: one or 15 hours after treatment, various doses
# Protocol: The effect of CDK4/6-inhibition on Rb phosphorylation at S780 in CCNE1-amplified versus CCNE1-non-amplified cell lines was evaluated. […] One or 15 hours after treatment, the cells were harvested and total protein was extracted and analyzed by western blot (FIG. 8).
# Whole cell extracts were prepared using RIPA buffer (Thermo Scientific, 89900) with a Halt Protease and Phosphatase Inhibitor Cocktail (Thermo Scientific, 78440). Protein concentration was quantified with a BCA Protein Assay Kit (Thermo Scientific, 23225) and 40 μg of protein lysates were loaded for SDS-PAGE using precast gradient gels (Bio-Rad, Hercules, No. 456-1094). Samples were diluted in 5×Laemmli buffer (300 mM Tris-HCl pH 6.8, 10% SDS (w/v), 5% 2-mercaptoethanol, 25% glycerol (v/v), 0.1% bromophenol blue w/v) and boiled for 5 minutes. […] of proteins were separated by 8-15% SDS-PAGE and transferred onto polyvinylidene fluoride (PVDF) membranes. Unspecific binding sites on the PVDF membranes were blocked with 5% non-fat milk in TBST (20 mM Tris-HCl, pH 7.6, 137 mM NaCl, 1% Tween-20). […] Images were captured by Luminescence/Fluorescence Imaging System Odyssey CLx Imager (LI-COR).
# [3] = tested on: CCNE1-non-amplified cell lines (COV504, OV56, Igrov1); experiment: Cell cycle analysis by FACS in CCNE1-non-amplified cell lines; type: cell-based, human
# Protocol: as §1, §2, §3
# [4] = tested on: Rb phosphorylated on serine 780 in CCNE1 amplified COV318 cells; experiment: CDK2 pRb (S780) HTRF cellular assay; type: cell-based; details: Homo sapiens, FIG. 10B
# Protocol: CDK2 pRb ([…]) HTRF cellular assay enables the quantitative detection of Rb phosphorylated on […] in CCNE1 amplified COV318 cells. The assay comprised two antibodies: Europium cryptate labeled anti-Phospho-Rb […] antibody (donor) and d2 labeled anti-Rb antibody (acceptor). […] The final concentrations of compounds start from 3 μM. […] After 2 h of incubation at room temperature, HTRF signals were measured on the PHERAstar microplate reader (BMG Labtech), using 340 nm as excitation wavelength, a 620 nm filter for the Europium donor fluorescence, and a 665-nm filter for the acceptor fluorescence detection. HTRF signals were calculated as the HTRF ratio (ratio of fluorescence measured at 665 nm and 620 nm)×10000.
smiles,measurement,setting,value
CC(=O)c1c(C)c2cnc(Nc3ccc(N4CCNCC4)cn3)nc2n(C2CCCC2)c1=O [palbociclib],percentage of cells at the S phase,[1],not significantly different
same,Rb phosphorylation at S780,[2],blocked Rb phosphorylation at S780
same,percentage of cells at the S phase,"[3]; COV504, OV56, Igrov1, 16 hours after treatment, compared to DMSO",decreased in CCNE1-non-amplified cell lines in a dose-dependent fashion
same,proliferation (cell cycle analysis by FACS),"[3]; COV504 cells, sixteen hours after treatment, increasing concentrations",dose-dependent inhibition of the proliferation
same,IC50,[4],> 3000 nM
